According to ChEMBL document CHEMBL1122067, “Species- or isozyme-specific enzyme inhibitors. 4. Design of a two-site inhibitor of adenylate kinase with isozyme selectivity” (J Med Chem, 1982):
Where “and” joins values, the source holds several entries; their conditions need not be identical. Identical values can stand only once.

Key:
[1] = biological target: T1, GTP:AMP phosphotransferase AK3, mitochondrial (Rattus norvegicus, UniProt P29411); test: Competitive binding inhibition constant of rat Adenylate kinase III was determined
[2] = Non-competitive binding inhibition constant (Ki) of rat adenylate kinase (AK) isozymes was determined
[3] = Competitive binding inhibition constant (Ki) of rat adenylate kinase (AK) isozymes was determined
[4] = biological target: T1, GTP:AMP phosphotransferase AK3, mitochondrial; test: Non competitive binding inhibition of rat adenylate kinase IIl was determined
[5] = Non competitive binding inhibition constant (Ki) of rat adenylate kinase (AK) isozymes was determined
[6] = biological target: T2, Adenylate kinase 2, mitochondrial (Rattus norvegicus, UniProt P29410); test: Non competitive binding inhibition constant (Ki) of rat adenylate kinase (AK II) isozymes was determined
[7] = biological target: T1, GTP:AMP phosphotransferase AK3, mitochondrial; test: Competitive binding inhibition constant of rat adenylate kinase IIl was determined
[8] = biological target: T1, GTP:AMP phosphotransferase AK3, mitochondrial; test: Non competitive binding inhibition constant of rat aAdenylate kinase III was determined
[9] = Non competitive binding inhibition constant(Ki) of rat adenylate kinase (AK) isozymes was determined
[10] = Non-competitive binding inhibition constant(Ki) of rat adenylate kinase (AK) isozymes was determined
[11] = biological target: T2, Adenylate kinase 2, mitochondrial; test: Competitive binding inhibition constant(Ki) of rat adenylate kinase (AK II) isozymes was determined
[12] = Ability to inhibit the rat muscle adenylate kinase isozyme in competition with the AMP varied
[13] = Ability to inhibit the rat muscle adenylate kinase isozyme in competition with the ATP varied
[14] = biological target: T1, GTP:AMP phosphotransferase AK3, mitochondrial; test: Ability to inhibit the rat muscle adenylate kinase lII in competition with the AMP varied; conditions: in the assay text read “rat liver adenylate kinase III” for “rat muscle adenylate kinase lII”
[15] = biological target: T2, Adenylate kinase 2, mitochondrial; test: Ability to inhibit the rat muscle adenylate kinase (AK II) isozyme in competition with the ATP varied; conditions: in the assay text read “rat liver” for “rat muscle”
[16] = biological target: T2, Adenylate kinase 2, mitochondrial; test: Ability to inhibit the rat muscle adenylate kinase (AK II) isozyme in competition with the AMP varied; conditions: in the assay text read “rat liver” for “rat muscle”
[17] = biological target: T2, Adenylate kinase 2, mitochondrial; test: Ability to inhibit the rat muscle adenylate kinase(AK II) isozyme in competition with the AMP varied; conditions: in the assay text read “rat liver” for “rat muscle”
[18] = biological target: T2, Adenylate kinase 2, mitochondrial; test: Ability to inhibit the rat muscle adenylate kinase(AK II) isozyme in competition with the ATP varied; conditions: in the assay text read “rat liver” for “rat muscle”

T1 sequence (P29411 whole entry): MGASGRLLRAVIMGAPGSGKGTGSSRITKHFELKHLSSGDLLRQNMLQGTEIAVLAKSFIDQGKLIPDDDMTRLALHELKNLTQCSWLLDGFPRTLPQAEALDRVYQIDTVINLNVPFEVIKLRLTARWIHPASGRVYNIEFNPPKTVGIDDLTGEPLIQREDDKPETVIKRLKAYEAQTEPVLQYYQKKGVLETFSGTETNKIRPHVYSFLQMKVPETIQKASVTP

SMILES: CC(=O)NCCCCCCNc1ncnc2c1ncn2C1O[C@H](COP(=O)(O)OP(=O)(O)OP(=O)(O)O)[C@@H](O)[C@H]1O (some centres not stated)
- Ki [1]: 4.8 mM
- Ki [2]: 12.9 mM

SMILES: CCCCN(CCCC)c1ncnc2c1ncn2C1O[C@H](COP(=O)(O)OP(=O)(O)OP(=O)(O)O)[C@@H](O)[C@H]1O (some centres not stated)
- Ki [1]: 3 mM
- Ki [3]: 2 mM

SMILES: CC(=O)NCCCCCCCCNc1ncnc2c1ncn2C1O[C@H](COP(=O)(O)O)[C@@H](O)[C@H]1O (some centres not stated)
- Ki [4]: 14 mM
- Ki [5]: 4.8 mM
- Ki [6]: 12.6 mM

SMILES: O=C(CI)NCCCCCNc1ncnc2c1ncn2C1O[C@H](COP(=O)(O)OP(=O)(O)OP(=O)(O)O)[C@@H](O)[C@H]1O (some centres not stated)
- Ki [7]: 6.2 mM
- Ki [2]: 6 mM

SMILES: CC(=O)NCCNc1ncnc2c1ncn2C1O[C@H](COP(=O)(O)O)[C@@H](O)[C@H]1O (some centres not stated)
- Ki [8]: 12.4 mM
- Ki [9]: 3.1 mM
- Ki [6]: 11.4 mM

SMILES: CCCSc1nc2c(N)ncnc2n1[C@@H]1O[C@H](COP(=O)(O)OP(=O)(O)OP(=O)(O)O)[C@@H](O)[C@H]1O
- Ki [10]: 6.2 mM
- Ki [1]: 0.07 mM
- Ki [11]: 0.06 mM

SMILES: Nc1ncnc2c1nc(Sc1ccccc1)n2[C@@H]1O[C@H](COP(=O)(O)OP(=O)(O)OP(=O)(O)O)[C@@H](O)[C@H]1O
- Ki [1]: 0.32 mM
- Ki [2]: 4 mM

SMILES: Nc1ncnc2c1ncn2[C@@H]1O[C@H](COP(=O)(O)OP(=O)(O)OP(=O)(O)OP(=O)(O)OP(=O)(O)OC[C@H]2O[C@@H](n3cnc4c(N)ncnc43)[C@H](O)[C@@H]2O)[C@@H](O)[C@H]1O
- Inhibition constant [12]: 0.26 µM
- Inhibition constant [13]: 0.26 µM
- Inhibition constant [14]: 0.3 µM
- Inhibition constant [15]: 0.3 µM
- Inhibition constant [16]: 0.28 µM

SMILES: CCSc1nc2c(N)ncnc2n1C1O[C@H](COP(=O)(O)OP(=O)(O)OP(=O)(O)OP(=O)(O)OP(=O)(O)OC[C@H]2OC(n3cnc4c(N)ncnc43)[C@H](O)[C@@H]2O)[C@@H](O)[C@H]1O (some centres not stated)
- Inhibition constant [12]: 3.5 µM
- Inhibition constant [17]: 0.06 µM
- Inhibition constant [18]: 0.08 µM
- Inhibition constant [13]: 3 µM
- Inhibition constant [14]: 0.08 µM and 0.07 µM
